Data taken from the NIST ThermoML archive (doi:10.1021/acs.jced.8b00132).
Several values for one entry are separate records, joined by “and”; a condition that tells them apart may be missing. Equal values may be shown once. Numbers after ± are expanded uncertainties.

O=C(C(F)(F)C(F)(F)F)C(F)(C(F)(F)F)C(F)(F)F [dodecafluoro-2-methylpentan-3-one]
Conditions | thermal conductivity
433.25 K, 43 kPa, Gas, hot wire | 0.02108 ± 0.00099 W/m/K
433.25 K, 156 kPa, Gas, hot wire | 0.02107 ± 0.00099 W/m/K
433.27 K, 1298 kPa, Gas, transient hot wire | 0.02415 ± 0.00082 W/m/K
433.28 K, 371 kPa, Gas, hot wire | 0.0228 ± 0.0011 W/m/K and 0.02281 ± 0.0011 W/m/K
433.28 K, 922 kPa, Gas, transient hot wire | 0.02221 ± 0.0014 W/m/K
433.28 K, 49421 kPa, Liquid, transient hot wire | 0.0643 ± 0.0013 W/m/K
433.29 K, 49444 kPa, Liquid, transient hot wire | 0.06433 ± 0.0013 W/m/K
433.3 K, 9673 kPa, Liquid, transient hot wire | 0.04596 ± 0.00096 W/m/K
433.3 K, 22710 kPa, Liquid, transient hot wire | 0.05348 ± 0.0011 W/m/K
433.31 K, 9675 kPa, Liquid, transient hot wire | 0.04592 ± 0.00096 W/m/K
433.35 K, 1138 kPa, Gas, transient hot wire | 0.02299 ± 0.00076 W/m/K
433.36 K, 15082 kPa, Liquid, transient hot wire | 0.04913 ± 0.001 W/m/K
433.36 K, 22714 kPa, Liquid, transient hot wire | 0.0536 ± 0.0011 W/m/K
433.37 K, 162 kPa, Gas, hot wire | 0.02126 ± 0.001 W/m/K
433.37 K, 1138 kPa, Gas, transient hot wire | 0.02295 ± 0.00076 W/m/K
433.37 K, 15085 kPa, Liquid, transient hot wire | 0.04954 ± 0.001 W/m/K
433.38 K, 43 kPa, Gas, hot wire | 0.02108 ± 0.00099 W/m/K
433.38 K, 159 kPa, Gas, hot wire | 0.02129 ± 0.001 W/m/K
433.38 K, 6166 kPa, Liquid, transient hot wire | 0.04304 ± 0.0009 W/m/K
433.39 K, 43 kPa, Gas, hot wire | 0.02105 ± 0.00099 W/m/K
433.39 K, 6163 kPa, Liquid, transient hot wire | 0.04307 ± 0.0009 W/m/K
433.41 K, 34187 kPa, Liquid, transient hot wire | 0.05868 ± 0.0012 W/m/K
433.43 K, 922 kPa, Gas, transient hot wire | 0.02216 ± 0.0014 W/m/K
433.43 K, 34200 kPa, Liquid, transient hot wire | 0.05865 ± 0.0012 W/m/K
433.44 K, 922 kPa, Gas, transient hot wire | 0.02224 ± 0.0014 W/m/K
433.45 K, 3945 kPa, Liquid, transient hot wire | 0.04079 ± 0.00086 W/m/K
433.46 K, 3946 kPa, Liquid, transient hot wire | 0.04082 ± 0.00086 W/m/K
433.49 K, 9685 kPa, Liquid, transient hot wire | 0.046 ± 0.00096 W/m/K
433.5 K, 375 kPa, Gas, transient hot wire | 0.02215 ± 0.0014 W/m/K
433.5 K, 9681 kPa, Liquid, transient hot wire | 0.04597 ± 0.00096 W/m/K
433.51 K, 377 kPa, Gas, transient hot wire | 0.02227 ± 0.0014 W/m/K
433.52 K, 1139 kPa, Gas, transient hot wire | 0.02308 ± 0.00077 W/m/K and 0.02311 ± 0.00077 W/m/K
433.53 K, 654 kPa, Gas, transient hot wire | 0.02193 ± 0.0014 W/m/K
433.53 K, 655 kPa, Gas, transient hot wire | 0.02205 ± 0.0014 W/m/K
433.55 K, 15079 kPa, Liquid, transient hot wire | 0.04951 ± 0.001 W/m/K
433.55 K, 15081 kPa, Liquid, transient hot wire | 0.04953 ± 0.001 W/m/K
433.55 K, 22699 kPa, Liquid, transient hot wire | 0.05365 ± 0.0011 W/m/K
433.55 K, 22714 kPa, Liquid, transient hot wire | 0.05356 ± 0.0011 W/m/K
433.59 K, 6168 kPa, Liquid, transient hot wire | 0.04309 ± 0.0009 W/m/K
433.59 K, 6172 kPa, Liquid, transient hot wire | 0.04309 ± 0.0009 W/m/K
433.6 K, 922 kPa, Gas, transient hot wire | 0.02237 ± 0.0014 W/m/K
433.69 K, 1141 kPa, Gas, transient hot wire | 0.02332 ± 0.00077 W/m/K
433.7 K, 374 kPa, Gas, transient hot wire | 0.02216 ± 0.0014 W/m/K
433.7 K, 375 kPa, Gas, transient hot wire | 0.02227 ± 0.0014 W/m/K
433.7 K, 1140 kPa, Gas, transient hot wire | 0.02335 ± 0.00077 W/m/K
433.7 K, 9688 kPa, Liquid, transient hot wire | 0.04596 ± 0.00096 W/m/K
433.7 K, 9691 kPa, Liquid, transient hot wire | 0.046 ± 0.00096 W/m/K
433.72 K, 652 kPa, Gas, transient hot wire | 0.02204 ± 0.0014 W/m/K
433.74 K, 651 kPa, Gas, transient hot wire | 0.02205 ± 0.0014 W/m/K
433.76 K, 15088 kPa, Liquid, transient hot wire | 0.04948 ± 0.001 W/m/K
433.76 K, 15091 kPa, Liquid, transient hot wire | 0.04951 ± 0.001 W/m/K
433.79 K, 922 kPa, Gas, transient hot wire | 0.02242 ± 0.0014 W/m/K
433.81 K, 6177 kPa, Liquid, transient hot wire | 0.04299 ± 0.0009 W/m/K
433.82 K, 6182 kPa, Liquid, transient hot wire | 0.04309 ± 0.0009 W/m/K
433.87 K, 1141 kPa, Gas, transient hot wire | 0.02354 ± 0.00078 W/m/K
433.88 K, 1141 kPa, Gas, transient hot wire | 0.02356 ± 0.00078 W/m/K
433.89 K, 373 kPa, Gas, transient hot wire | 0.02231 ± 0.0014 W/m/K
433.9 K, 373 kPa, Gas, transient hot wire | 0.02227 ± 0.0014 W/m/K
433.92 K, 9693 kPa, Liquid, transient hot wire | 0.04597 ± 0.00096 W/m/K
433.92 K, 9695 kPa, Liquid, transient hot wire | 0.04596 ± 0.00096 W/m/K
433.94 K, 648 kPa, Gas, transient hot wire | 0.02211 ± 0.0014 W/m/K
433.94 K, 649 kPa, Gas, transient hot wire | 0.02204 ± 0.0014 W/m/K
433.96 K, 922 kPa, Gas, transient hot wire | 0.02254 ± 0.0014 W/m/K
433.98 K, 922 kPa, Gas, transient hot wire | 0.02253 ± 0.0014 W/m/K
434.12 K, 372 kPa, Gas, transient hot wire | 0.02229 ± 0.0014 W/m/K and 0.02228 ± 0.0014 W/m/K
434.14 K, 645 kPa, Gas, transient hot wire | 0.02216 ± 0.0014 W/m/K
434.14 K, 646 kPa, Gas, transient hot wire | 0.02214 ± 0.0014 W/m/K
434.33 K, 371 kPa, Gas, transient hot wire | 0.02233 ± 0.0014 W/m/K
434.35 K, 371 kPa, Gas, transient hot wire | 0.02232 ± 0.0014 W/m/K
452.91 K, 2283 kPa, Gas, transient hot wire | 0.03823 ± 0.0024 W/m/K
452.94 K, 2214 kPa, Gas, transient hot wire | 0.03736 ± 0.0023 W/m/K
452.96 K, 2283 kPa, Gas, transient hot wire | 0.03736 ± 0.0023 W/m/K
452.98 K, 2213 kPa, Gas, transient hot wire | 0.03655 ± 0.0022 W/m/K
452.99 K, 2283 kPa, Gas, transient hot wire | 0.03849 ± 0.0024 W/m/K
452.99 K, 2349 kPa, Gas, transient hot wire | 0.03688 ± 0.0023 W/m/K
453 K, 2137 kPa, Gas, transient hot wire | 0.033 ± 0.0021 W/m/K
453 K, 2214 kPa, Gas, transient hot wire | 0.0364 ± 0.0022 W/m/K
453 K, 2283 kPa, Gas, transient hot wire | 0.03799 ± 0.0023 W/m/K
453.01 K, 2349 kPa, Gas, transient hot wire | 0.03694 ± 0.0023 W/m/K
453.01 K, 2431 kPa, Gas, transient hot wire | 0.0358 ± 0.00089 W/m/K
453.03 K, 2213 kPa, Gas, transient hot wire | 0.03832 ± 0.0024 W/m/K
453.03 K, 2432 kPa, Gas, transient hot wire | 0.03591 ± 0.00087 W/m/K
453.04 K, 2137 kPa, Gas, transient hot wire | 0.03326 ± 0.0021 W/m/K
453.04 K, 2213 kPa, Gas, transient hot wire | 0.0384 ± 0.0024 W/m/K and 0.03766 ± 0.0023 W/m/K
